Reference: patent publication US7112579B2, “26,27-Homologated-20-EPI-2-alkyl-19-nor-vitamin D compounds” (Wisconsin Alumni Research Foundation, priority 1997, dated 2006)
Where two headings read alike, the source gives them in different places. Values belong to the compound of their own block, whether it stands above or below them.

What was measured:
[1] = target: T1, porcine intestinal vitamin D receptor (Sus scrofa, UniProt A3RGC1); assay: Competitive binding to the porcine intestinal vitamin D receptor ([3H]-1,25-(OH)2-D3 displacement); set-up: species or system pig; details: for VDR Binding ratio: analog average ED50 / ED50 for 1α,25-(OH)2D3; for EC50: concentration for 50% displacement of radiolabeled 1α,25-(OH)2D3, read-out: VDR Binding ED50; for ability to bind the porcine intestinal vitamin D receptor, in words: FIGS. 1, 3 and 5, comparison in words
T1 construct: from tissue; host or cells: porcine intestine
T1 sequence (A3RGC1 1-427): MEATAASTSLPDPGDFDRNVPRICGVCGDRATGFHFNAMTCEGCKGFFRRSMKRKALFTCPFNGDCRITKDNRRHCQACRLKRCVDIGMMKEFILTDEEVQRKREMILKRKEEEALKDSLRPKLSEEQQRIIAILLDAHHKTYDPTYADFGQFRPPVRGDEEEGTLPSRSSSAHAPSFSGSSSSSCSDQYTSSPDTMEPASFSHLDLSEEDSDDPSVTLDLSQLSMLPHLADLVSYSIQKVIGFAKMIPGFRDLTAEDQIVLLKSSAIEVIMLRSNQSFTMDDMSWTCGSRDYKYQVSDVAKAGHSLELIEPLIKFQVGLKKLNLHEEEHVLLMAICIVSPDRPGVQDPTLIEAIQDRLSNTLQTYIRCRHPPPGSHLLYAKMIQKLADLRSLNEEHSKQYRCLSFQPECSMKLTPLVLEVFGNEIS

[2] = tested on: intestinal calcium transport; assay: Support of intestinal calcium transport in vitamin D-deficient rats on a low-calcium diet (3 weeks), 7 daily i.p. doses; format: in vivo, rat
[3] = tested on: human promyelocyte HL-60 cells; assay: Differentiation of HL-60 promyelocytes into monocytes (NBT reduction); format: cell-based; details: for HL-60 Differentiation Activity ratio: analog average ED50 / ED50 for 1α,25-(OH)2D3; for HL-60 Differentiation ED50: concentration inducing 50% maturation (NBT); for induction of differentiation of HL-60 cells to monocytes, in words: FIGS. 2, 4, 6, comparison in words
Text: In the next assay, the cellular activity of the synthesized compounds was established by studying their ability to induce differentiation of human promyelocyte HL-60 cells into monocytes.

[4] = tested on: bone calcium mobilization (serum Ca); assay: Bone calcium mobilization (serum Ca) in vitamin D-deficient rats on a low-calcium diet (3 weeks), 7 daily i.p. doses; format: in vivo, rat
[5] = tested on: intestinal calcium transport; assay: Intestinal calcium transport (everted sac), chronic doses 7 days i.p., vitamin D-deficient rats; format: in vivo, rat; details: for Intestinal Calcium Transport (S/M): Table 3, mean±SEM; for intestinal calcium transport activity, in words: chronic 7 days, 130 and/or 260 pmol/day
Description: (§1) Male weanling rats were obtained from Sprague Dawley Co. (Indianapolis, Ind.) and fed a 0.47% calcium, 0.3% phosphorus vitamin D-deficient diet for 1 week and then given the same diet containing 0.02% calcium, 0.3% phosphorus for 2 weeks. During the last week they were given the indicated dose of compound by intraperitoneal injection in 0.1 ml 95% propylene glycol and 5% ethanol each day for 7 days. The control animals received only the 0.1 ml of 95% propylene glycol, 5% ethanol. Twenty-four hours after the last dose, the rats were sacrificed and intestinal calcium transport was determined by everted sac technique as previously described and serum calcium determined by atomic absorption spectrometry on a model 3110 Perkin Elmer instrument (Norwalk, Conn.). There were 5 rats per group and the values represent mean±SEM.
as §1, with “With respect to the data in Tables 3 and 4, male” for “Male”, “atormic” for “atomic”

[6] = tested on: serum calcium (bone calcium mobilization); assay: Serum calcium (bone calcium mobilization), chronic doses 7 days i.p., vitamin D-deficient rats; format: in vivo, rat; details: for Serum Calcium: Table 3, mean±SEM; for bone calcium mobilization (serum calcium) activity, in words: chronic 7 days, 130 and/or 260 pmol/day
Description: as §1
as §1, with “With respect to the data in Tables 3 and 4, male” for “Male”, “atormic” for “atomic”

[7] = Table 9 panel 2, 65 pmol daily x 7 i.p.
[8] = Table 9 panel 2, 260 pmol daily x 7 i.p.
[9] = Table 7 panel 1, 32 pmol daily x 7 i.p.
[10] = Table 7 panel 1, 65 pmol daily x 7 i.p.

receptor binding, less effective than 2α-hydroxymethyl analog 20 ([1]; relative to 20): ca. 8 times
SMILES: CC(CCCC(C)(C)O)C1CCC2C(=CC=C3CC(O)C(CO)C(O)C3)CCCC21C (stereo not drawn) [Compound 21, 1α,25-Dihydroxy-2β-(hydroxymethyl)-19-norvitamin D3]

ability to bind the porcine intestinal vitamin D receptor, in words [1]: about as active as 1α,25-(OH)2D3
SMILES: CC(CCCC(C)(C)O)C1CCC2C(=CC=C3CC(O)C(C)C(O)C3)CCCC21C (stereo not drawn) [Compound 18, 2α-methyl-19-nor-20S-1,25-(OH)2D3]
Intestinal Calcium Transport (S/M) ([5]; 130 pmol/day/7 days i.p.): 12.9 ± 1.9 S/M
Intestinal Calcium Transport (S/M) ([5]; 260 pmol/day/7 days i.p.): 8.4 ± 1.1 S/M
intestinal calcium transport activity, in words [5]: significant change in intestinal calcium transport at both the 260 pmol and the 130 pmol dose levels
HL-60 differentiation, more active than corresponding 2β-isomer ([3]; 12 vs 13, 18 vs 19): 10 times
induction of differentiation of HL-60 cells to monocytes, in words [3]: extremely potent
Serum Calcium ([6]; 130 pmol/day/7 days i.p., listed as 2α-Methyl-19-nor-20(S)-1,25-(OH)2D3): 8.3 ± 0.7 mg/100 ml
Serum Calcium ([6]; 130 pmol/day/7 days i.p., listed as 2α-methyl-19-nor-20S-1,25-(OH)2D3): 8.3±0.7 mg/100 ml
Serum Calcium ([6]; 260 pmol/day/7 days i.p., listed as 2α-Methyl-19-nor-20(S)-1,25-(OH)2D3): 10.3 ± 0.11 mg/100 ml
Serum Calcium ([6]; 260 pmol/day/7 days i.p., listed as 2α-methyl-19-nor-20S-1,25-(OH)2D3): 10.3±0.11 mg/100 ml
bone calcium mobilization (serum calcium) activity, in words [6]: much higher than that of the native hormone

Continued, compound first:

SMILES: CC1[C@H](O)CC(=C/C=C2\CCC[C@@]3(C)C2CCC3[C@@H](C)CCCC2(O)CCCC2)C[C@H]1O (stereo partly drawn) [Compound 49, 20(S)-1α,25-Dihydroxy-26,27-dimethylene-2β-methyl-19-norvitamin D3]
VDR Binding ratio ([1]; Table 8): 2.6
EC50 ([1]; Table 8): 2.3 nM
Ca Transport S/M (mean ± SEM) [2, 7]: 4.9 ± 0.6^d^1 S/M
Ca Transport S/M (mean ± SEM) [2, 8]: 5.4 ± 0.7^d^2 S/M
HL-60 Differentiation Activity ratio ([3]; Table 8): 0.08
HL-60 Differentiation ED50 ([3]; Table 8): 0.32 nM
Serum Ca (mean ± SEM) [4, 7]: 5.8 ± 0.2^d^1
Serum Ca (mean ± SEM) [4, 8]: 9.5 ± 0.1^d^2

SMILES: CCC(O)(CC)CCCC(C)C1CCC2C(=CC=C3CC(O)C(C)C(O)C3)CCCC21C [Compound 36, 20(S)-1α,25-Dihydroxy-2α-methyl-26,27-dihomo-19-nor-vitamin D3]
VDR Binding ratio ([1]; Table 6): 3.6
EC50 ([1]; Table 6): 3.1 nM
Ca Transport S/M (mean ± SEM) [2, 9]: 5.8 ± 0.4^d^1 S/M
Ca Transport S/M (mean ± SEM) [2, 10]: 8.4 ± 0.8^d^2 S/M
HL-60 Differentiation Activity ratio ([3]; Table 6): 0.01
HL-60 Differentiation ED50 ([3]; Table 6): 0.06 nM
Serum Ca (mean ± SEM) [4, 9]: 5.9 ± 0.2^d^1
Serum Ca (mean ± SEM) [4, 10]: 9.3 ± 0.2^d^2

SMILES: CC1C(O)CC(=CC=C2CCC[C@]3(C)[C@@H]([C@@H](C)CCCC(C)(C)O)CC[C@@H]23)CC1O (stereo partly drawn) [Compound 19, 20(S)-1α,25-Dihydroxy-2β-methyl-19-nor-vitamin D3]
Intestinal Calcium Transport (S/M) ([5]; 130 pmol/day/7 days i.p.): 2.9 ± 0.3 S/M
Intestinal Calcium Transport (S/M) ([5]; 260 pmol/day/7 days i.p.): 3.8 ± 0.1 S/M
intestinal calcium transport activity, in words [5]: little, if any, intestinal calcium transport activity
ability to bind the porcine intestinal vitamin D receptor, in words [1]: about as active as 1α,25-(OH)2D3
induction of differentiation of HL-60 cells to monocytes, in words [3]: high potency in cellular differentiation
Serum Calcium ([6]; 130 pmol/day/7 days i.p.): 4.4 ± 0.1 mg/100 ml
Serum Calcium ([6]; 260 pmol/day/7 days i.p.): 4.4 ± 0.1 mg/100 ml
bone calcium mobilization (serum calcium) activity, in words [6]: little, if any, bone mobilization activity
calcemic activity (intestinal calcium transport and bone calcium mobilization), in words ([6]; chronic doses, rats): lack of calcemic activity
